Assays:
ALDH1A1 = biological target: T1, ALDH1A1 (Homo sapiens, UniProt P00352); experiment: Reactivity of probes to recombinant ALDH1A1 (UPLC/MS/MS detection of aldehyde and carboxylic acid forms); format: biochemical; settings: 10-100 nM ALDH, 10-80 μM compound, Tris buffer pH 7.5, 30 minutes at 37° C., ◯/X not defined by a legend
T1 construct: purchased
T1 sequence (P00352 1-501): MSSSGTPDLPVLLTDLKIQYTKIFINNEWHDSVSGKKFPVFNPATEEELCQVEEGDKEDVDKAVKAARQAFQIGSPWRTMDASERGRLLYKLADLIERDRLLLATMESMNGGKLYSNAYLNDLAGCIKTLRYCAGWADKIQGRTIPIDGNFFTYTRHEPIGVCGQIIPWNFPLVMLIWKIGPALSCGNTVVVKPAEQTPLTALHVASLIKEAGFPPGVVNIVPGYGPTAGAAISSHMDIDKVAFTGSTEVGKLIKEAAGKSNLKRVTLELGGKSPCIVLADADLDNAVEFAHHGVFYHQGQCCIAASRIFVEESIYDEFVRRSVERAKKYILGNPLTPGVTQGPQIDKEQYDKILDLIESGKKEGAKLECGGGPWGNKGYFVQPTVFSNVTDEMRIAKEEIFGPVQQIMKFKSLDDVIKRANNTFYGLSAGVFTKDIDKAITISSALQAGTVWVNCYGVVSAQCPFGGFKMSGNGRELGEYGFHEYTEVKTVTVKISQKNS
Method: (§1) Human recombinant ALDH1A1/1A3/3A1 was purchased, and 100 mM of KCL, 2 mM of DTT, 1 mM of NAD(P), 10-100 nM of each ALDH, and 10-80 μM of each compound were mixed in Tris buffer (100 mM, pH 7.5), reacted for 30 minutes at 37° C., an equal amount of acetonitrile added, and the reaction stopped. The reaction solution was analyzed by UPLC/MS/MS (Waters). The UPCL chromatogram was carried out over five minutes at a flow rate of 800 μL/min by a linear gradient from 5% acetonitrile 0.01 M ammonium formate/water to 95% acetonitrile 0.01 M ammonium formate/water. An aldehyde-form and carboxylic acid-form probe were detected by the absorbance at a wavelength of 504 nm, and m/z of the MS spectrum at each peak was confirmed to agree with the expected m/z.

ALDH3A1 = biological target: T2, ALDH3A1 (Homo sapiens, UniProt P30838); experiment: Kinetic characteristics (Michaelis-Menten Km, Kcat) with ALDH3A1; format: biochemical
T2 construct: purchased
T2 sequence (P30838 1-453): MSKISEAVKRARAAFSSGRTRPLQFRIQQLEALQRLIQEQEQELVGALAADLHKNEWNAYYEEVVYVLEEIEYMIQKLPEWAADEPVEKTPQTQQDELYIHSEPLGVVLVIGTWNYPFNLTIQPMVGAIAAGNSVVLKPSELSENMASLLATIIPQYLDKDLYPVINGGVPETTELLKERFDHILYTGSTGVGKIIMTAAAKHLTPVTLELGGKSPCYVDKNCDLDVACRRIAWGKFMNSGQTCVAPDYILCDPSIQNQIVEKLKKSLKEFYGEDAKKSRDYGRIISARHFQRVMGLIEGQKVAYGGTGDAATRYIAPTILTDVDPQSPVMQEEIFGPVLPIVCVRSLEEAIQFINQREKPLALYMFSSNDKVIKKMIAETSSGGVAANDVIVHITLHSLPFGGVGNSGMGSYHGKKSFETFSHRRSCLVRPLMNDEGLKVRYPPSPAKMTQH
Method: as §1
For the reaction, 100 mM of KCL, 2 mM of DTT, 1 mM of NAD(P), and five to six concentrations within the range of 10-100 nM of each ALDH and 0.1-80 μM of each probe were selected, mixed in Tris buffer (100 mM, pH 7.5), and reacted for five minutes at 37° C.; an equal amount of acetonitrile was added, and the reaction was stopped. Detection of the aldehyde-form/carboxylic acid-form probes was carried out using the same method as described above by UPLC/MS/MS. Km and Kcat were calculated by fitting the reaction rate at each probe concentration obtained to the Michaelis-Menten equation. A Kaleida Graph ver. 4.1 (Hulinks, Inc.) was used in fitting.
The Kcat ratio (Kcat of ALDH3A1/Kcat of ALDH1A1) was calculated for probe 1, probe 3, and probe 5 as an indicator of ALDH1A1/ALDH3A1 specificity because the probe reaction rate at the actual probe use concentration is believed to be close to Vmax since Km is relatively small (Table 5).

[1] = HPLC (LC/MS) retention time as measure of hydrophilicity / membrane permeability; format: physicochemical; settings: C18 column, 20% B 2.5 min, 20%-->100% B 5 min, 500 μL/min, neutral conditions, mean±SD of three tests
Method: In the present invention, it is preferable to use the retention time on an HPLC chromatogram as the measure of hydrophilicity.
HPLC conditions: taking solvent A to be 0.01 M ammonium formate/water and solvent B to be 80% acetonitrile 0.01 M ammonium formate/water, chromatography is carried out under conditions of 20% solvent B for 2.5 minutes followed by a 5-minute linear gradient of solvent B from 20% to 100% (flow rate 500 μL/min).
A C18 column (HP 3 μm, inner diameter: 2.1 mm, length: 150 mm, GL Science), for example, can be used suitably as the column.
The water solubility was verified by LC/MS under neutral conditions to compare the membrane permeability of the five probes produced above and ALDEFLUOR. The reaction was stopped after advancing the reaction to the point that each probe was present as both a carboxylic acid form and an aldehyde form using a suitable isoform and concentration of ALDH, and analysis was conducted by LC/MS (Agilent 1200/6130 quadrupole LC/MS system). A C18 column (HP 3 μm, inner diameter: 2.1 mm, length: 150 mm, GL Science) was used as the column. HPLC chromatograms were carried out by 20% B for 2.5 minutes followed by a five-minute linear gradient (flow rate: 500 μL/min) from 20% to 100% B, taking solvent A to be 0.01 M ammonium formate/water and solvent B to be 80% acetonitrile 0.01 M ammonium formate/water. The probe containing BODIPY was detected by the absorbance at a wavelength of 504 nm and the probe containing TG at a wavelength of 495 nm, and m/z of the MS spectrum at each peak was confirmed to agree with the expected m/z. Three independent tests were run, and the mean±SD was calculated. […] Given that imaging of probe 1 was not successful, there was thought to be a threshold at which the membrane permeability changes rapidly between this 6.741 minutes and 7.098 minutes (band in FIG. 2).

[2] = five minutes at 37° C., Tris buffer pH 7.5

N-(4-formylbenzyl)-3-(1,3-dimethyl-4,4-difluoro-4-bora-3a,4a-diaza-s-indacen-5-yl)-propionamide [Probe 1]
Reactivity to ALDH1A1 (ALDH1A1): ◯
Reactivity to ALDH1A1 (ALDH1A1; listed as Compound 1): reacted with all three of the isoforms tested
Kcat ALDH3A1 (ALDH3A1; [2]): 1.12 ± 0.08 s⁻¹
Km (ALDH3A1; [2]): 58.9 ± 7.6 µM
Kcat ratio (Kcat of ALDH3A1/Kcat of ALDH1A1) (ALDH3A1; indicator of ALDH1A1/ALDH3A1 specificity): 0.8
Retention Time, Aldehyde form [1]: 8.874 ± 0.000 min
Retention Time, carboxylate (carboxylic acid form) [1]: 7.098 ± 0.001 min
Retention Time, carboxylate (carboxylic acid form) ([1]; listed as probe 1): 7.098 min
